Columns and labels:
LPS from E. coli = test: Endotoxin inactivation in human serum, chromogenic LAL test (E. coli LPS); assay type: biochemical; conditions: 500 ng/mL peptide, 5 ng/mL LPS, n = 3
Experimental: (§1) The LPS neutralization study in serum was conducted using a chromogenic Limulus Amebocyte Lysate (LAL) test (Charles River Laboratories, MA, USA). The LAL test is the most established method for quantifying LPS. This method uses amebocyte lysate from Limulus polyphemus, wherein the presence of LPS triggers a defense mechanism that induces coagulation. The LAL test is used successfully for detection of LPS in a wide variety of industrial, pharmaceutical, and research applications, such as water supplies, parenteral fluids, drugs for intravenous administration, and certain biologic fluids (e.g., cerebrospinal fluid). Therefore, serum, which was obtained from freshly drawn blood, was spiked with 500 ng/mL AMPs, PMB or LL-37 before adding 5 ng/mL LPS from E. coli or P. aeruginosa. As positive and negative controls, native serum with and without LPS was used, respectively. Endotoxin activity was measured using the LAL assay according to the manufacturer’s specifications.

LPS from P. aeruginosa = test: Endotoxin inactivation in human serum, chromogenic LAL test (P. aeruginosa LPS); assay type: biochemical; conditions: 500 ng/mL peptide, 5 ng/mL LPS, n = 3
Experimental: as §1

E. coli (ATCC 11303) = test: microbe, parasite or virus in culture; assay type: cell-based; conditions: DIN 58940-8, Müller-Hinton broth, overnight 37 °C, turbidity 620 nm
S. aureus (ATCC 12600) = test: microbe, parasite or virus in culture; assay type: cell-based; conditions: DIN 58940-8, Müller-Hinton broth, overnight 37 °C, turbidity 620 nm
E. coli and S. aureus = test: Scanning electron microscopy of bacterial cell wall damage; assay type: cell-based; conditions: 128 μg/mL, overnight culture at 37 °C, 2 × 10^5–8 × 10^5 CFU/mL
Experimental: In order to verify and to visualize the impact of AMPs on the bacterial membrane, electron microscopy was conducted. Therefore, bacterial suspensions of E. coli and S. aureus with a concentration of 2 × 10^5–8 × 10^5 CFU/mL were incubated with 128 μg/mL of one AMP (LF11-322-C8) and PMB in a microplate over night at 37 °C. After overnight culture, the bacteria were prepared for SEM. To achieve this, the bacteria suspensions were filtered through a sterile filter (Swinnex filter holders, Merck Millipore, Burlington, MA, USA). The filters with the collected bacteria were than washed with PBS (10 mM, pH 7.2) and fixed with a 2.5% glutaraldehyde solution (Carl Roth, Karlsruhe, Deutschland). The fixed specimens were gradually dehydrated by increasing ethanol solutions (10% to 100%) and sputtered with gold (Q150R ES Sputter Coater, Quorum Technologies Ltd., East Sussex, UK) prior to examination with a scanning electron microscope (FlexSEM 1000, Hitachi, Tokyo, Japan).

erythrocyte membranes [1] = test: Hemolysis in whole blood (Kahn method); assay type: cell-based, human; conditions: citrate anticoagulated whole blood, 60 min 37 °C, Kahn method, n = 3, control 3.7 ± 1.9
Experimental: (§2) Hemolysis was tested with fresh citrate anticoagulated blood from healthy volunteers as well as with blood cells which were suspended in phosphate buffered saline (10 mM pH 7.4). Afterwards, 100 μL AMP solution was added to 500 μL blood to finally achieve AMP concentrations of 8, 32, and 128 μg/mL. As the negative and positive control, 100 μL PBS buffer and 100 μL 12% Triton-X buffer was added to 500 μL blood, respectively. After incubation on an orbital shaker for 60 min at 37 °C, the cells were removed by centrifugation and 100 μL of the supernatant were transferred to a 96 well microplate for hemolysis measurement. The hemolysis was calculated from the extinction at the wavelengths 562, 578, and 598 nm with a Synergy 2 microplate reader (BioTek, Winooski, VT, USA) according to the method published by Kahn.

erythrocyte membranes [2] = test: Hemolysis in RBC suspended in PBS (Kahn method); assay type: cell-based, human; conditions: 60 min 37 °C, Kahn method, n = 3, control 8.5 ± 4.7
Experimental: as §2

plasmatic coagulation [3] = test: Activation of the clotting cascade in heparinized plasma; conditions: heparinized (0.5 IU/mL) plasma, 128 μg/mL, 37 °C, 120 min, turbidity at 600 nm
Experimental: (§3) Plasma spiked with MES buffer without AMP was used as the negative control. […] Samples were incubated at 37 °C for 120 min. Coagulation was determined by turbidity measurement at 600 nm using a well plate reader.

plasmatic coagulation [4] = test: Activation of the clotting cascade in citrated plasma; conditions: citrated (17 mM) plasma, 128 μg/mL, 37 °C, 120 min, turbidity at 600 nm
Experimental: as §3

plasmatic coagulation [5] = test: Clotting batch test in citrate plasma; assay type: biochemical, human; conditions: citrate plasma, 37 °C, 60 min, turbidity 600 nm, fibrinogen and D-Dimer; note: key: −: no clotting observed, no D-dimers and normal fibrinogen level; +: clotting observed, high D-dimer level, no detectable fibrinogen serum level
Experimental: Since the acylated LF11-322 peptides cause plasmatic coagulation of citrate anticoagulated plasma, separate clotting experiments were performed with this peptide group. The aim was to check whether the coagulation activation is dependent on the AMP concentration and on the acyl chain length. […] Plasma without additives served as the negative control, whereas plasma spiked with CaCl2/MgCl2 (500/250 mM) solution to restore the physiological calcium and magnesium level in plasma was used as the positive control. Incubation was performed at 37 °C for 60 min. […] In order to ensure that the measured turbidity of the plasma is caused by fibrin formation, the fibrinogen and D-Dimer concentrations were additionally determined. During plasmatic clotting, the fibrinogen level decreases and the D-Dimer level in serum increases. Both were analyzed on a Sysmex CA560 with the corresponding reagents (Siemens Healthineers, Erlangen, Germany).

platelets = test: SEM imaging of platelet morphology in PRP; assay type: cell-based, human; conditions: 128 μg/mL, 2 h, 37 °C
Experimental: Since it was observed that some AMPs are able to activate the plasmatic coagulation system of heparinized and citrate anticoagulated blood, the influence of this peptides on platelets was investigated. For this purpose, fresh heparinized and citrated blood were collected from three donors. The blood was centrifuged at 500 g for 5 min and platelet rich plasma (PRP) was obtained. The PRP was incubated at 37 °C for 2 h with 128 μg/mL AMP, PMB, and LL-37. PRP without any additives served as the control. After incubation, the platelet number was determined by a Sysmex Automated Hematology Analyzer KX-21-N (Kobe, Japan). In addition, the PRP samples were prepared for SEM to visualize the morphology of the thrombocytes. After incubation, 10 μL PRP were diluted with 990 μL PBS (0.01 M) and filtered through a 0.2 μm membrane (Membrane Filter Isopore 0.2 μm, Merck, Darmstadt, Germany). The platelets were retained on the membrane, washed with 1 mL PBS, and fixed with 1 mL glutaraldehyde solution (2.5% glutaraldehyde in physiological saline solution). After an incubation time of 60 min, the samples were dehydrated using a series of ethanol (30%, 50%, 60%, 70%, 80%, 90%, and 100%). Afterwards the samples were dried overnight at RT, sputtered with gold and visualized with a scanning electron microscope (FLEXSem 1000, Hitachi, Japan).

[6] = tested on: LPS-stimulated leukocytes; conditions: whole blood, PMB serum level between 100 to 200 ng; cited from earlier work
Experimental: Past studies have shown that a PMB serum level between 100 to 200 ng reduces the cytokine secretion of LPS-stimulated leukocytes up to 90% in whole blood. PMB directly interacts with the conserved lipid A region of the LPS molecule. […] In this study, it was tested whether the lactoferrin based peptides are able to form a complex with LPS similar to PMB, which would lead to a reduction of the inflammatory effect of LPS. The results (Figure 3) indicate that in c ...

[7] = PBS pH 7.4, inoculum 2 × 10^5–8 × 10^5 CFU/mL

## Polymyxin B [PMB, reference compound]
LPS from E. coli
  Reduction of endotoxin activity of E. coli LPS: 63 ± 7%
LPS from P. aeruginosa
  Reduction of endotoxin activity of P. aeruginosa LPS: 74 ± 7%
E. coli (ATCC 11303); 4% human serum albumin
  Minimal Inhibitory Concentration, E. coli, 4% HSA: 4 µg/mL
E. coli (ATCC 11303); PBS containing 5 IU/mL heparin
  Minimal Inhibitory Concentration, E. coli, PBS + heparin: 4 µg/mL
E. coli (ATCC 11303); [7]
  Minimal Inhibitory Concentration, E. coli, PBS: 2 µg/mL
S. aureus (ATCC 12600); 4% human serum albumin
  Minimal Inhibitory Concentration, S. aureus, 4% HSA: 64 µg/mL
S. aureus (ATCC 12600); PBS containing 5 IU/mL heparin
  Minimal Inhibitory Concentration, S. aureus, PBS + heparin: > 128 µg/mL
S. aureus (ATCC 12600); [7]
  Minimal Inhibitory Concentration, S. aureus, PBS: 8 µg/mL
E. coli and S. aureus
  Lysis of bacteria cells seen by SEM (in words): not able to lyse S. aureus cells
Erythrocyte membranes [1]; peptide conc. 8 μg/mL
  Free Hemoglobin, BLOOD, 8 μg/mL: 3.5 ± 2.8 mg/dL
Erythrocyte membranes [1]; peptide conc. 32 μg/mL
  Free Hemoglobin, BLOOD, 32 μg/mL: 3.7 ± 1.4 mg/dL
Erythrocyte membranes [1]; peptide conc. 128 μg/mL
  Free Hemoglobin, BLOOD, 128 μg/mL: 2.6 ± 3.9 mg/dL
Erythrocyte membranes [2]; blood cells suspended in PBS 10 mM pH 7.4, highest peptide conc.
  Free Hemoglobin, RBC in PBS, 128 μg/mL: 1.9 ± 0.2 mg/dL
Erythrocyte membranes [2]; blood cells suspended in PBS 10 mM pH 7.4, peptide conc. 8 μg/mL
  Free Hemoglobin, RBC in PBS, 8 μg/mL: 14.9 ± 3.1 mg/dL
Erythrocyte membranes [2]; blood cells suspended in PBS 10 mM pH 7.4, peptide conc. 32 μg/mL
  Free Hemoglobin, RBC in PBS, 32 μg/mL: 18.9 ± 11.2 mg/dL
Plasmatic coagulation [3]
  Plasma clot, Heparin Plasma: −
Plasmatic coagulation [4]
  Plasma clot, Citrated Plasma: −
Plasmatic coagulation [5]
  Clotting of citrate plasma, Peptide Concentration 8 μg/mL: −
  Clotting of citrate plasma, Peptide Concentration 32 μg/mL: −
  Clotting of citrate plasma, Peptide Concentration 128 μg/mL: −
  Clotting of citrate plasma, Peptide Concentration 256 μg/mL: −
platelets
  Platelet morphology by SEM, citrate anticoagulated PRP (in words): morphologically intact platelets
[6]
  Reduction of cytokine secretion of LPS-stimulated leukocytes: up to 90%
